From patent US20210187077A1, “GLP-1 Agonist Conjugates for Sustained Glycemic Control” (IDAHO STATE UNIVERSITY, priority 2019, published 2021) come the findings set out here.

The experiment is described as follows: hydroxyapatite (HA) binding in vitro study (bone mineral affinity). The procedure: To evaluate the bone mineral affinity of the GLP-1 conjugate described in Example 1, hydroxyapatite (HA) binding in vitro studies were conducted. Briefly, 10 μg of GLP-1 or equivalent amount of GLP-1 conjugate was mixed with 5 mg of HA powder in 500 μL of the binding buffer with various concentrations (double-distilled water (D.D.), 10 mM PBS [pH 7.4], 50 mM PBS [pH 7.4], acetate buffer [pH 4]) . Similarly, tubes containing an equivalent amount of GLP-1 or GLP-1 conjugate in corresponding buffers without HA were used as a negative control. Mixtures were shaken gently at room temperature for 1 hour and then were centrifuged at 10,000 g for 5 minutes. The supernatant was separated and assayed for unbound drug, using a fluorescence spectrometer (λEx 215 nm, λEm 305 nm). The percentage of HA binding was calculated as:
(Intensity of control−the intensity of supernatants)/Intensity of control×100%
Each experiment was measured in triplicate.

For the substance “H-HAE GTF TSD VSS YLE GQA A-K(Mal-PEGn-BP)-E FIA WLV KGR —NH2 [GLP-1 conjugate]”, for the setting “acidic pH (Acetate buffer pH 4 vs PBS pH 7.4) and lower buffer concentration (10 mM vs 50 mM)”, the “effect of pH and phosphate ion concentration on HA binding capacity” value is on record as “higher binding”. Besides, the “binding capacity to HA compared with plain GLP-1 peptide” value (various medium (D.D. water, 10 mM PBS pH 7.4, 50 mM PBS pH 7.4, acetate buffer pH 4), 5 mg HA, 1 hour, room temperature, p<0.01) is on record as “significantly different binding capacity to HA”.
